# Measurements taken from patent US9175003B2, “Substituted azoanthracene derivatives and intermediates for preparation thereof” (TransTech Pharma, LLC, priority 2009, dated 2015).
# Target: human GLP-1 receptor (Homo sapiens (Human), UniProt P43220)
# Conditions: read-out: Mean EC50; cAMP, HTRF detection, 30 min at 37° C., HEK-293 cells expressing cloned human GLP-1 receptor
# Sequence of human GLP-1 receptor (P43220 24-463): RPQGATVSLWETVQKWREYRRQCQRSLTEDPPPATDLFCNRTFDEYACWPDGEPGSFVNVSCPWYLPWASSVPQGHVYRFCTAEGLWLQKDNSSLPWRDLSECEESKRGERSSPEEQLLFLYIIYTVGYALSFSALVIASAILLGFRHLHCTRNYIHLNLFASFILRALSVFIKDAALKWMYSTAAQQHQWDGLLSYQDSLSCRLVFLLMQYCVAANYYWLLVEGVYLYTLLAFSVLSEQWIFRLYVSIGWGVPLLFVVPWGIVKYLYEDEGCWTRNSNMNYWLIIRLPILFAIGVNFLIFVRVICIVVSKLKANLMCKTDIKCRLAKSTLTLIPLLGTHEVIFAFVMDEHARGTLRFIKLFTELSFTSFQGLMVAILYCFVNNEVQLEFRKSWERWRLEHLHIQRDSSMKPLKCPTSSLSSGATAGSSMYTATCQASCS
row,Structure (SMILES),EC50 [nM]
1,"Cc1nccc(-c2ccc(C[C@H](NC(=O)[C@@H]3Cc4cc5c(cc4CN3C(=O)N[C@H](C)c3ccc(F)cc3)O[C@@H](c3ccc(OCc4ccc(Cl)c(Cl)c4)cc3)CO5)C(=O)O)cc2)c1C [Example 247, (S)-2-({(3S,8S)-3-[4-(3,4-Dichloro-benzyloxy)-phenyl]-7-[(R)-1-(4-fluoro-phenyl)-ethylcarbamoyl]-2,3,6,7,8,9-hexahydro-[1,4]dioxino[2,3-g]isoquinoline-8-carbonyl}-amino)-3-[4-(2,3-dimethyl-pyridin-4-yl)-phenyl]-propionic acid]",175
2,"Cc1nccc(-c2ccc(C[C@H](NC(=O)[C@@H]3Cc4cc5c(cc4CN3C(=O)NC3CCCC3)O[C@@H](c3ccc(OCc4ccc(Cl)c(Cl)c4)cc3)CO5)C(=O)O)cc2)c1C [Example 248, (S)-2-({(3S,8S)-7-Cyclopentylcarbamoyl-3-[4-(3,4-dichloro-benzyloxy)-phenyl]-2,3,6,7,8,9-hexahydro-[1,4]dioxino[2,3-g]isoquinoline-8-carbonyl}-amino)-3-[4-(2,3-dimethyl-pyridin-4-yl)-phenyl]-propionic acid]",187
3,"Cc1nccc(-c2ccc(C[C@H](NC(=O)[C@@H]3Cc4cc5c(cc4CN3C(=O)NC(C)C)O[C@@H](c3ccc(OCc4ccc(Cl)c(Cl)c4)cc3)CO5)C(=O)O)cc2)c1C [Example 250, (S)-2-({(3S,8S)-3-[4-(3,4-Dichloro-benzyloxy)-phenyl]-7-isopropylcarbamoyl-2,3,6,7,8,9-hexahydro-[1,4]dioxino[2,3-g]isoquinoline-8-carbonyl}-amino)-3-[4-(2,3-dimethyl-pyridin-4-yl)-phenyl]-propionic acid]",171
4,"Cc1nccc(-c2ccc(C[C@H](NC(=O)[C@@H]3Cc4cc5c(cc4CN3C(=O)NC(C)(C)C)O[C@@H](c3ccc(OCc4ccc(Cl)c(Cl)c4)cc3)CO5)C(=O)O)cc2)c1C [Example 251, (S)-2-({(3S,8S)-7-tert-Butylcarbamoyl-3-[4-(3,4-dichloro-benzyloxy)-phenyl]-2,3,6,7,8,9-hexahydro-[1,4]dioxino[2,3-g]isoquinoline-8-carbonyl}-amino)-3-[4-(2,3-dimethyl-pyridin-4-yl)-phenyl]-propionic acid]",144
5,"Cc1nccc(-c2ccc(C[C@H](NC(=O)[C@@H]3Cc4cc5c(cc4CN3C(=O)NC3CCCCC3)O[C@@H](c3ccc(OCc4ccc(Cl)c(Cl)c4)cc3)CO5)C(=O)O)cc2)c1C [Example 252, (S)-2-({(3S,8S)-7-Cyclohexylcarbamoyl-3-[4-(3,4-dichloro-benzyloxy)-phenyl]-2,3,6,7,8,9-hexahydro-[1,4]dioxino[2,3-g]isoquinoline-8-carbonyl}-amino)-3-[4-(2,3-dimethyl-pyridin-4-yl)-phenyl]-propionic acid]",99
6,"Cc1cccc(NC(=O)N2Cc3cc4c(cc3C[C@H]2C(=O)N[C@@H](Cc2ccc(-c3ccnc(C)c3C)cc2)C(=O)O)OC[C@H](c2ccc(OCc3ccc(Cl)c(Cl)c3)cc2)O4)c1 [Example 253, (S)-2-({(3S,8S)-3-[4-(3,4-Dichloro-benzyloxy)-phenyl]-7-m-tolylcarbamoyl-2,3,6,7,8,9-hexahydro-[1,4]dioxino[2,3-g]isoquinoline-8-carbonyl}-amino)-3-[4-(2,3-dimethyl-pyridin-4-yl)-phenyl]-propionic acid]",85
7,"Cc1nccc(-c2ccc(C[C@H](NC(=O)[C@@H]3Cc4cc5c(cc4CN3C(=O)Nc3ccc(F)c(F)c3)O[C@@H](c3ccc(OCc4ccc(Cl)c(Cl)c4)cc3)CO5)C(=O)O)cc2)c1C [Example 254, (S)-2-{[(3S,8S)-3-[4-(3,4-Dichloro-benzyloxy)-phenyl]-7-(3,4-difluoro-phenylcarbamoyl)-2,3,6,7,8,9-hexahydro-[1,4]dioxino[2,3-g]isoquinoline-8-carbonyl]-amino}-3-[4-(2,3-dimethyl-pyridin-4-yl)-phenyl]-propionic acid]",186
8,"Cc1nccc(-c2ccc(C[C@H](NC(=O)[C@@H]3Cc4cc5c(cc4CN3C(=O)Nc3cc(F)cc(F)c3)O[C@@H](c3ccc(OCc4ccc(Cl)c(Cl)c4)cc3)CO5)C(=O)O)cc2)c1C [Example 255, (S)-2-{[(3S,8S)-3-[4-(3,4-Dichloro-benzyloxy)-phenyl]-7-(3,5-difluoro-phenylcarbamoyl)-2,3,6,7,8,9-hexahydro-[1,4]dioxino[2,3-g]isoquinoline-8-carbonyl]-amino}-3-[4-(2,3-dimethyl-pyridin-4-yl)-phenyl]-propionic acid]",317
9,"Cc1nccc(-c2ccc(C[C@H](NC(=O)[C@@H]3Cc4cc5c(cc4CN3C(=O)Nc3cnccn3)O[C@@H](c3ccc(OCc4ccc(Cl)c(Cl)c4)cc3)CO5)C(=O)O)cc2)c1C [Example 257, (S)-2-{[(3S,8S)-3-[4-(3,4-Dichloro-benzyloxy)-phenyl]-7-(pyrazin-2-ylcarbamoyl)-2,3,6,7,8,9-hexahydro-[1,4]dioxino[2,3-g]isoquinoline-8-carbonyl]-amino}-3-[4-(2,3-dimethyl-pyridin-4-yl)-phenyl]-propionic acid]",348
10,"Cc1nccc(-c2ccc(C[C@H](NC(=O)[C@@H]3Cc4cc5c(cc4CN3C(=O)Nc3ccccn3)O[C@@H](c3ccc(OCc4ccc(Cl)c(Cl)c4)cc3)CO5)C(=O)O)cc2)c1C [Example 258, (S)-2-{[(3S,8S)-3-[4-(3,4-dichloro-benzyloxy)-phenyl]-7-(pyridin-2-ylcarbamoyl)-2,3,6,7,8,9-hexahydro-[1,4]dioxino[2,3-g]isoquinoline-8-carbonyl]-amino}-3-[4-(2,3-dimethyl-pyridin-4-yl)-phenyl]-propionic acid]",251
11,"Cc1ncoc1C(=O)N1Cc2cc3c(cc2C[C@H]1C(=O)N[C@@H](Cc1ccc(Oc2ccnc(C)c2C)cc1)C(=O)O)OC[C@H](c1ccc(OCc2ccc(Cl)c(Cl)c2)cc1)O3 [Example 263, (S)-2-{[(3S,8S)-3-[4-(3,4-Dichloro-benzyloxy)-phenyl]-7-(4-methyl-oxazole-5-carbonyl)-2,3,6,7,8,9-hexahydro-[1,4]dioxino[2,3-g]isoquinoline-8-carbonyl]-amino}-3-[4-(2,3-dimethyl-pyridin-4-yloxy)-phenyl]-propionic acid]",187
12,"Cc1nc(C)c(C(=O)N2Cc3cc4c(cc3C[C@H]2C(=O)N[C@@H](Cc2ccc(Oc3ccnc(C)c3C)cc2)C(=O)O)OC[C@H](c2ccc(OCc3ccc(Cl)c(Cl)c3)cc2)O4)o1 [Example 265, (S)-2-{[(3S,8S)-3-[4-(3,4-Dichloro-benzyloxy)-phenyl]-7-(2,4-dimethyl-oxazole-5-carbonyl)-2,3,6,7,8,9-hexahydro-[1,4]dioxino[2,3-g]isoquinoline-8-carbonyl]-amino}-3-[4-(2,3-dimethyl-pyridin-4-yloxy)-phenyl]-propionic acid]",95
13,"Cc1cc(C(=O)N2Cc3cc4c(cc3C[C@H]2C(=O)N[C@@H](Cc2ccc(Oc3ccnc(C)c3C)cc2)C(=O)O)OC[C@H](c2ccc(OCc3ccc(Cl)c(Cl)c3)cc2)O4)n(C)n1 [Example 266, (S)-2-{[(3S,8S)-3-[4-(3,4-Dichloro-benzyloxy)-phenyl]-7-(2,5-dimethyl-2H-pyrazole-3-carbonyl)-2,3,6,7,8,9-hexahydro-[1,4]dioxino[2,3-g]isoquinoline-8-carbonyl]-amino}-3-[4-(2,3-dimethyl-pyridin-4-yloxy)-phenyl]-propionic acid]",132
14,"Cc1cc(C(=O)N2Cc3cc4c(cc3C[C@H]2C(=O)N[C@@H](Cc2ccc(-c3ccnc(C)c3C)cc2)C(=O)O)OC[C@H](c2ccc(OCc3ccc(Cl)c(Cl)c3)cc2)O4)n(C)n1 [Example 270, (S)-2-{[(3S,8S)-3-[4-(3,4-Dichloro-benzyloxy)-phenyl]-7-(2,5-dimethyl-2H-pyrazole-3-carbonyl)-2,3,6,7,8,9-hexahydro-[1,4]dioxino[2,3-g]isoquinoline-8-carbonyl]-amino}-3-[4-(2,3-dimethyl-pyridin-4-yl)-phenyl]-propionoc acid]",142
15,"Cc1cc(C(=O)N2Cc3cc4c(cc3C[C@H]2C(=O)N[C@@H](Cc2ccc(-c3ccnc(C)c3C)cc2)C(=O)O)OC[C@H](c2ccc(OCc3ccc(Cl)c(Cl)c3)cc2)O4)no1 [Example 271, (S)-2-{[(3S,8S)-3-[4-(3,4-Dichloro-benzyloxy)-phenyl]-7-(5-methyl-isoxazole-3-carbonyl)-2,3,6,7,8,9-hexahydro-[1,4]dioxino[2,3-g]isoquinoline-8-carbonyl]-amino}-3-[4-(2,3-dimethyl-pyridin-4-yl)-phenyl]-propionic acid]",102
16,"Cc1nccc(-c2ccc(C[C@H](NC(=O)[C@@H]3Cc4cc5c(cc4CN3C(=O)C3CCN(C(=O)OC(C)(C)C)CC3)O[C@@H](c3ccc(OCc4ccc(Cl)c(Cl)c4)cc3)CO5)C(=O)O)cc2)c1C [Example 274, 4-{(3S,8S)-8-{(S)-1-Carboxy-2-[4-(2,3-dimethyl-pyridin-4-yl)-phenyl]-ethylcarbamoyl}-3-[4-(3,4-dichloro-benzyloxy)-phenyl]-2,3,8,9-tetrahydro-6H-[1,4]dioxino[2,3-g]isoquinoline-7-carbonyl}-piperidine-1-carboxyl is acid tert-butyl ester]",2
17,"Cc1nccc(-c2ccc(C[C@H](NC(=O)[C@@H]3Cc4cc5c(cc4CN3C(=O)c3cccc(O)c3)O[C@@H](c3ccc(OCc4ccc(Cl)c(Cl)c4)cc3)CO5)C(=O)O)cc2)c1C [Example 277, (S)-2-{[(3S,8S)-3-[4-(3,4-Dichloro-benzyloxy)-phenyl]-7-(3-hydroxy-benzoyl)-2,3,6,7,8,9-hexahydro-[1,4]dioxino[2,3-g]isoquinoline-8-carbonyl]-amino}-3-[4-(2,3-dimethyl-pyridin-4-yl)-phenyl]-propionic acid]",143
18,"Cc1nccc(-c2ccc(C[C@H](NC(=O)[C@@H]3Cc4cc5c(cc4CN3C(=O)c3cc(F)cc(F)c3)O[C@@H](c3ccc(OCc4ccc(Cl)c(Cl)c4)cc3)CO5)C(=O)O)cc2)c1C [Example 278, (S)-2-{[(3S,8S)-3-[4-(3,4-Dichloro-benzyloxy)-phenyl]-7-(3,5-difluoro-benzoyl)-2,3,6,7,8,9-hexahydro-[1,4]dioxino[2,3-g]isoquinoline-8-carbonyl]-amino}-3-[4-(2,3-dimethyl-pyridin-4-yl)-phenyl]-propionic acid]",45
